Experimental data taken from publication PMC3850926, “Evaluation of the adverse event profile and pharmacodynamics of toceranib phosphate administered to dogs with solid tumors at doses below the maximum tolerated dose” (BMC Veterinary Research, 2013).
Read-outs that look alike come from different tables or passages of the source.

How the values were obtained:
[1] = system: dogs with a variety of tumors; design: method as in PMID 12855656; settings: cited from earlier work
[2] = Toceranib plasma concentrations (LC-MS/MS) in dogs with solid tumors; format: in vivo, dog; settings: for Cmax: dog, plasma, oral
Description: (§1) A total of 40 dogs were enrolled in this study, with dogs initially assigned to toceranib at 2.5 mg/kg or 2.75 mg/kg EOD. All dogs were placed on famotidine at 0.5-1 mg/kg once per day at study initiation and owners were instructed to administer the toceranib in the morning with food. Physical examination, routine bloodwork (CBC, biochemistry profile) and blood sampling for assessment of toceranib and VEGF plasma concentrations was performed pretreatment and on days 0, 7, 14 and 30 of treatment. […] Owners of dogs that experienced CR, PR, or SD at study day 30 were offered the option of continuing toceranib administration for an additional 6 months (provided at no cost), although patient data was not officially captured beyond day 30.
Blood was collected into EDTA tubes and centrifuged at 3000 × g for 10 minutes. Plasma was then collected and split evenly into two portions in cryovials, then stored at -80°C until analysis was performed for toceranib and VEGF concentrations.
Toceranib was quantitated in plasma samples using the method previously described. Briefly, 50 μL aliquots of plasma were fortified with an internal standard (IS), a deuterated toceranib analog. Toceranib and the IS were extracted from the plasma by protein precipitation using acetonitrile. The analyte and IS are light sensitive and undergo photoisomerization when exposed to light. Therefore, the 96-well plates were protected from light by wrapping the bottom and sides with foil and securing with adhesive tape. Calibration standards (1 to 1000 ng/mL) and quality control (QC) samples were prepared with separate weighing of toceranib reference material (Pfizer, Kalamazoo, MI, 98.1% purity). Standard and QC solutions were prepared by serially diluting a stock solution (100 μg/mL in methanol) into control canine plasma so that no standard or QC sample contained more that 1% methanol. Study samples were analyzed as single replicates.
The prepared samples were injected onto a Zorbax StableBond CN column and elution of toceranib and the IS accomplished with an acetonitrile:15 mM ammonium formate solution (pH 3.25) 30/70 v/v mobile phase with a 80/20 v/v rinse for 2.3 minutes at 5 minutes after each injection. Detection was accomplished using MS/MS using a Sciex 4000 triple-quadrupole mass spectrometer with Turboionspray ionization source (MDS Sciex, Toronto, Canada). Transition ions of m/z 397.2 → 283.2 for toceranib and 401.3 → 283.2 for the IS were used. The standard curves were generated using peak area ratios of toceranib to the IS and a 1/concentration^2 weighted quadratic regression. Toceranib concentrations were determined by interpolation over the quantitation range of 1.00 ng/mL to 1000 ng/mL.

[3] = system: solid tumors; test: Tumor response assessment (RECIST v.1.1); format: in vivo, dog
Description: as §1
Tumor assessments were performed on days 0, 7, 14 and 30 of study. Tumor assessment was performed using caliper measurement with digital photography documentation, thoracic radiography, ultrasonography, or spiral computerized tomography (CT) as indicated. Determination of antitumor efficacy was based on objective tumor assessments made according to the RECIST v.1.1 guidelines using unidimensional measurements. Response to therapy was defined as complete response (CR, resolution of all target and non-target lesions, no new lesions), partial response (PR, at least 30% decrease in the longest diameter of target lesions, no progression of non-target lesions, and no new lesions), stable disease (SD, decrease in target lesions of less than 30% or increase of target lesions less than 20%, no progression of non-target lesions, and no new lesions) or progressive disease (PD, greater than 20% increase in target lesions, progression of non-target, new lesions). Dogs were defined as experiencing clinical benefit if they had CR, PR, or SD.

[4] = system: KIT; settings: dogs with MCT, 8 hours post drug administration; cited from earlier work

Cc1[nH]c(/C=C2\C(=O)Nc3ccc(F)cc32)c(C)c1C(=O)NCCN1CCCC1 [toceranib, Toceranib phosphate]
complete responses, CR (number of dogs) ([1]; 2.5 mg/kg EOD, 16 dogs): 4 | objective response (number of dogs) ([1]; 2.5 mg/kg EOD, 16 dogs): 6 dogs | objective response (percent) ([1]; 2.5 mg/kg EOD, 16 dogs): 37.5% | partial responses, PR (number of dogs) ([1]; 2.5 mg/kg EOD, 16 dogs): 2 | stable disease, SD (number of dogs) ([1]; 2.5 mg/kg EOD, 16 dogs): 5 dogs | CR (number of dogs) ([1]; 3.25 mg/kg EOD, 20 dogs): 2 | PR (number of dogs) ([1]; 3.25 mg/kg EOD, 20 dogs): 6 | objective response (number of dogs) ([1]; 3.25 mg/kg EOD, 20 dogs): 8 | course of presumed Cmax plasma concentration ([2]; EOD regimen, levels out by day 30): increased gradually in most dogs over the first 2 weeks of dosing | dogs with Cmax at 12 hours (number) ([2]; day 30): 12 dogs | reported Cmax as percent of the 12 hour concentration ([2]; day 30, the 12 dogs with Cmax at 12 hours): 51% to 98% | Cmax ([2]; all dose ranges above 2.4 mg/kg, days 0, 7, 14, 30, read-out: median Cmax): > 40 ng/mL | Cmax ([2]; dose ranges 2.4-2.9 mg/kg EOD, by day 30, read-out: mean presumed Cmax): 100 to 200 ng/mL | Median plasma concentration measured at 6 or 8 hours, level after first two weeks ([2]; dogs dosed 2.4-2.9 mg/kg EOD): 100 to 120 ng/mL | difference among dosing groups in 6 or 8 hour drug concentrations (presumed Cmax) ([2]; dogs dosed 2.4-2.9 mg/kg, each time point): no significant difference | plasma drug concentration relative to the other dose groups ([2]; dogs dosed at 2.30-2.39 mg/kg (3 dogs)): lower concentrations of drug at all time points | average 6–8 hr plasma concentration ([2]; dogs with solid tumors, 2.4-2.9 mg/kg every other day): 100 to 120 ng/mL | average time dogs remained on toceranib after day 30 ([3]; 35 of the 40 dogs): 16.7 weeks | PD (number of dogs) ([3]; Nasal carcinoma, N 5): 2 | PR (number of dogs) ([3]; Salivary gland adenocarcinoma, N 1): 1 | PD (number of dogs) ([3]; Soft tissue sarcoma, N 7): 2 | PR (number of dogs) ([3]; Squamous cell carcinoma, N 4): 2 | PR (number of dogs) ([3]; Thyroid carcinoma, N 7): 2 | clinical benefit (number of dogs) ([3]; over 30 days): 36/40 | PD (number of dogs), all tumor types ([3]; over 30 days, 40 dogs): 4 dogs | PD (percent of dogs) ([3]; over 30 days, 40 dogs): 10% | PR (number of dogs), all tumor types ([3]; over 30 days, 40 dogs): 5/40 | PR (percent of dogs) ([3]; over 30 days, 40 dogs): 12.5% | overall clinical benefit rate (CR + PR + SD) ([3]; over 30 days, 40 dogs): 90% | dogs that transitioned from SD to PR after day 30 ([3]; thyroid carcinoma): one | dogs that transitioned to CR after day 30 ([3]; two SCC and one salivary gland adenocarcinoma): 3 dogs | lowest plasma concentration with intratumoral target modulation (downregulation of KIT and/or ERK phosphorylation) [4]: 30 ng/mL
